In patent US10703698B2, “Compounds which activate estrogen receptors and compositions and methods of using the same” (The Board of Trustees of the University of Illinois, priority 2016, dated 2020):

Test system: PgR gene
Assay: PgR (genomic gene) mRNA expression, qPCR
Conditions: MCF-7 cells; 1 μM PaPE or 10 nM E2 for 4 h where stated; versus vehicle or E2
Text: (§2) Quantitation of signal intensities is shown in panel at the right.

Structure (SMILES) | PgR (genomic gene) mRNA expression, in words
Cc1cc(C(=C2CCCCC2)c2ccc(Br)cc2)cc(C)c1O [Compound 67] | stimulate PgR gene selectively
CC(O)c1ccc(-c2ccccc2)cc1 (stereo not shown) [Compound 31] | both activities are lost
OCc1cc(-c2ccccc2)ccc1O [Compound 61, 4-Hydroxy-3-hydroxymethyl-biphenyl] | not at all
Cc1cc(-c2cccc(CC(=O)O)c2)cc(C)c1O [Compound 49] | behaves like vehicle
COC1CC(=O)c2ccc(-c3cc(C)c(O)c(C)c3)cc21 (stereo not shown) [Compound 29] | did not activate PgR above that of vehicle (veh.)
Cc1cc(-c2cc(C)c(O)c(C)c2)cc(C)c1O [Compound 65, 4,4′-Dihydroxy-3,3′,5,5′-tetramethylbiphenyl] | equivalent to that of vehicle (Veh.)
Cc1cc(-c2ccc3c(c2)CC(Br)C3O)cc(C)c1O (stereo not shown) [Compound 51, 2-bromo-5-(4-hydroxy-3,5-dimethylphenyl)-2,3-dihydro-1H-inden-1-ol] | stimulate both non-genomic LRRC54 and genomic PgR gene expression close to the level that of E2
COCc1cc(-c2ccc3c(c2)CCC3O)cc(C)c1O (stereo not shown) [Compound 54, 5-(4-hydroxy-3-methyl-5-methoxymethylphenyl)-2,3-dihydro-1H-inden-1-ol] | little expression of both genes
Cc1cc(-c2ccc3c(c2)CC=C3)cc(C)c1O [Compound 14, 4-(1H-inden-6-yl)-2,6-dimethylphenol] | strongly stimulate the genomic gene PgR
Cc1cc(-c2ccc3c(c2)CCC3)cc(C)c1O [Compound 13, 4-(2,3-dihydro-1H-inden-5-yl)-2 6-dimethylphenol] | strongly stimulate the genomic gene PgR
Cc1cc(-c2ccc3cc(O)ccc3c2)cc(C)c1O [Compound 53] | gene expression pattern equivalent to that of estradiol (E2)
Cc1cc(-c2ccc3c(c2)CC(Br)(Br)C3O)cc(C)c1O (stereo not shown) [Compound 52, 2,2-dibromo-5-(4-hydroxy-3,5-dimethylphenyl)-2,3-dihydro-1H-inden-1-ol] | little expression of both genes
Cc1cc(C(=C2C3CC4CC(C3)CC2C4)c2ccc(Br)cc2)cc(C)c1O [Compound 66] | stimulate PgR gene selectively
Cc1cc(-c2cccc(CCCO)c2)cc(C)c1O [Compound 47, 3′-(3-hydroxypropyl)-3,5-dimethyl-[1,1′-biphenyl]-4-ol] | stimulate expression of genomic PgR genes well
COC1CCc2cc(-c3cc(C)c(O)c(C)c3)ccc21 (stereo not shown) [Compound 22, 4-(1-methoxy-2,3-dihydro-1H-inden-5-yl)-2,6-dimethylphenol] | stimulation of both genomic and nongenomic gene expression is lost
Cc1cc(-c2ccc(CCCO)cc2)cc(C)c1O [Compound 48, 4′-(3-hydroxypropyl)-3,5-dimethyl-[1,1′-biphenyl]-4-ol] | stimulate expression of genomic PgR genes well
Cc1cc(-c2ccc3c(c2)C=CC3=O)cc(C)c1O [Compound 18] | increases expression of both the non-genomic and genomic genes
Cc1cc(-c2ccc3c(c2)CC(F)C3O)cc(C)c1O (stereo not shown) [Compound 50, 2-fluoro-5-(4-hydroxy-3,5-dimethylphenyl)-2,3-dihydro-1H-inden-1-ol] | stimulate both non-genomic LRRC54 and genomic PgR gene expression close to the level that of E2

Test system: LRRC54 gene
Assay: LRRC54 (non-genomic gene) mRNA expression, qPCR
Conditions: MCF-7 cells; 1 μM PaPE or 10 nM E2 for 4 h where stated; versus vehicle, E2 or compound 2
Text: as §2

Structure (SMILES) | LRRC54 (non-genomic gene) mRNA expression, in words
Cc1cc(-c2ccc(CCBr)cc2)cc(C)c1O [Compound 46] | preferentially stimulate LRRC54 better than E2
COc1c(C)cc(-c2ccc3c(c2)CCC3O)cc1C (stereo not shown) [Compound 5, 5-(4-methoxy-3,5-dimethylphenyl)-2,3-dihydro-1H-inden-1-ol] | marked loss of this non-genomic activity
CC(O)c1ccc(-c2ccccc2)cc1 (stereo not shown) [Compound 31] | both activities are lost
Cc1cc(-c2ccc(O)cc2)cc(C)c1O [Compound 35] | principally loss of LRRC54 gene expression
Cc1cc(-c2cccc(CCO)c2)cc(C)c1O [Compound 44, 3′-(2-hydroxyethyl)-3,5-dimethyl-[1,1′-biphenyl]-4-ol] | preferentially stimulate LRRC54 better than E2
Cc1cc(-c2cc(C)c(O)c(CO)c2)cc(C)c1O [Compound 68, 3-(Hydroxymethyl)-3′,5,5′-trimethyl-[1,1′-biphenyl]-4,4′-diol] | suppresses LRRC54 gene expression compared to that of the parent compound 59
Cc1cc(-c2ccc(O)c(CCO)c2)cc(C)c1O [Compound 69, 3′-(2-hydroxyethyl)-3,5-dimethyl-[1,1′-biphenyl]-4,4′-diol] | does not improve the non-genomic LRRC54 gene response
OCc1cc(-c2ccccc2)ccc1O [Compound 61, 4-Hydroxy-3-hydroxymethyl-biphenyl] | a little better than vehicle (Veh.)
Cc1cc(-c2cccc(CC(=O)O)c2)cc(C)c1O [Compound 49] | behaves like vehicle
Cc1cc(-c2ccc3c(c2)CC[C@H]3O)cc(C)c1O [Compound 4, R-5-(4-hydroxy-3,5-dimethylphenyl)-2,3-dihydro-1H-inden-1-ol] | less non-genomic gene activity
Cc1cc(-c2cc(C)c(O)c(C)c2)cc(C)c1O [Compound 65, 4,4′-Dihydroxy-3,3′,5,5′-tetramethylbiphenyl] | greatly suppresses LRRC54 gene expression
Cc1cc(-c2ccc(CCO)cc2)cc(C)c1O [Compound 45, 4′-(2-hydroxyethyl)-3,5-dimethyl-[1,1′-biphenyl]-4-ol] | preferentially stimulate LRRC54 better than E2
Cc1cc(-c2ccc3c(c2)CC(Br)C3O)cc(C)c1O (stereo not shown) [Compound 51, 2-bromo-5-(4-hydroxy-3,5-dimethylphenyl)-2,3-dihydro-1H-inden-1-ol] | stimulate both non-genomic LRRC54 and genomic PgR gene expression close to the level that of E2
COCc1cc(-c2ccc3c(c2)CCC3O)cc(C)c1O (stereo not shown) [Compound 54, 5-(4-hydroxy-3-methyl-5-methoxymethylphenyl)-2,3-dihydro-1H-inden-1-ol] | little expression of both genes
OCc1cc(-c2ccc3c(c2)CCC3O)cc(CO)c1O (stereo not shown) [Compound 58, 5-(4-hydroxy-3,5-(dihydroxymethyl)phenyl)-2,3-dihydro-1H-inden-1-ol] | increases the expression of the non-genomic LRRC54 gene
Cc1cc(-c2ccc3c(c2)CCC3=O)cc(C)c1O [Compound 6, 5-(4-hydroxy-3,5-dimethylphenyl)-2,3-dihydro-1H-inden-1-one] | non-genomic activity is lost
Cc1cc(-c2ccc3c(c2)CCC3)cc(C)c1O [Compound 13, 4-(2,3-dihydro-1H-inden-5-yl)-2 6-dimethylphenol] | some non-genomic activity
Cc1cc(-c2ccc3cc(O)ccc3c2)cc(C)c1O [Compound 53] | gene expression pattern equivalent to that of estradiol (E2)
Cc1cc(-c2ccc3c(c2)CC(Br)(Br)C3O)cc(C)c1O (stereo not shown) [Compound 52, 2,2-dibromo-5-(4-hydroxy-3,5-dimethylphenyl)-2,3-dihydro-1H-inden-1-ol] | little expression of both genes
Cc1cc(-c2ccc3c(c2)CC[C@@H]3O)cc(C)c1O [Compound 3, S-5-(4-hydroxy-3,5-dimethylphenyl)-2,3-dihydro-1H-inden-1-ol] | equivalent activities
Cc1cc(-c2cccc(CCCO)c2)cc(C)c1O [Compound 47, 3′-(3-hydroxypropyl)-3,5-dimethyl-[1,1′-biphenyl]-4-ol] | good stimulation of the non-genomic LRRC54
COC1CCc2cc(-c3cc(C)c(O)c(C)c3)ccc21 (stereo not shown) [Compound 22, 4-(1-methoxy-2,3-dihydro-1H-inden-5-yl)-2,6-dimethylphenol] | stimulation of both genomic and nongenomic gene expression is lost
Cc1cc(-c2ccc3c(c2)C=CC3=O)cc(C)c1O [Compound 18] | increases expression of both the non-genomic and genomic genes
Cc1cc(-c2ccc3c(c2)CC(F)C3O)cc(C)c1O (stereo not shown) [Compound 50, 2-fluoro-5-(4-hydroxy-3,5-dimethylphenyl)-2,3-dihydro-1H-inden-1-ol] | stimulate both non-genomic LRRC54 and genomic PgR gene expression close to the level that of E2

Molecular target: T1, purified full-length human ERα (Homo sapiens, UniProt P03372)
T1 construct: using purified full-length human ERα and ERβ
T1 sequence (P03372 1-595): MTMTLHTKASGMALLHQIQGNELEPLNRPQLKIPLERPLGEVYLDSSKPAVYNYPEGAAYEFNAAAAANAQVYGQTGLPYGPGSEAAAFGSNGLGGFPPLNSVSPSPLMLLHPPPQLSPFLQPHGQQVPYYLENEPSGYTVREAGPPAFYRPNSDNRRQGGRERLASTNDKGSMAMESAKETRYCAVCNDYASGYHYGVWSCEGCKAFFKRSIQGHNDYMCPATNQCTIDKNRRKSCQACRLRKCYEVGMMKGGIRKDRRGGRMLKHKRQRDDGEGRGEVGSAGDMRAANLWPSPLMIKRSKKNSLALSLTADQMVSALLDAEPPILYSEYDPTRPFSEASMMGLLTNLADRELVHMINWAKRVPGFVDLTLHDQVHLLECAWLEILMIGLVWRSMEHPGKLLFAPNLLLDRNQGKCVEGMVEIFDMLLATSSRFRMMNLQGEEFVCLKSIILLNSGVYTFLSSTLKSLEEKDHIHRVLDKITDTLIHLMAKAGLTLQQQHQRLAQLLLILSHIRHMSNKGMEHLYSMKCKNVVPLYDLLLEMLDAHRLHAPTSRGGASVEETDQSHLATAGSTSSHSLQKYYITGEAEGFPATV
Assay: competitive radiometric binding assay, relative binding affinity (RBA)
Conditions: relative to estradiol = 100
Text: (§1) FIG. 1. […] […]

Structure (SMILES) | ERα RBA (relative binding affinity)
Cc1cc([C@H]2CC[C@@]3(C)[C@H](CC[C@@H]3O)C2)cc(C)c1O [Compound 43, (1S,3aR,5S,7aS)-5-(4-hydroxy-3,5-dimethylphenyl)-7a-methyloctahydro-1H-inden-1-ol] | <0.001
Cc1cc(-c2ccc(O)cc2)cc(C)c1O [Compound 35] | 0.011 ± 0.003
Cc1cc(-c2cccc(CCO)c2)cc(C)c1O [Compound 44, 3′-(2-hydroxyethyl)-3,5-dimethyl-[1,1′-biphenyl]-4-ol] | 0.001
Cc1cc(-c2ccc(CCO)cc2)cc(C)c1O [Compound 45, 4′-(2-hydroxyethyl)-3,5-dimethyl-[1,1′-biphenyl]-4-ol] | 0.001
Cc1cc(-c2ccc(CO)cc2C(F)(F)F)cc(C)c1O [Compound 28] | 0.008 ± 0.002
Cc1cc(-c2ccc(CO)c(F)c2)cc(C)c1O [Compound 25, 3′-fluoro-4′-(hydroxvmethyl)-3,5-dimethyl-[1,1′-biphenyl]-4-ol] | 0.003 ± 0
Cc1cc(-c2ccc(CO)cc2)cc(C)c1O [Compound 23] | 0.002 ± 0.001
C#CC1(O)CCc2cc(-c3cc(C)c(O)c(C)c3)ccc21 (stereo not shown) [Compound 19, 1-ethynyl-5-(4-hydroxy-3,5-dimethylphenyl)-2,3-dihydro-1H-inden-1-ol] | 0.004 ± 0.001

Molecular target: T2, purified full-length human ERβ (Homo sapiens, UniProt Q92731)
T2 construct: using purified full-length human ERα and ERβ
Assay: as above
Conditions: relative to estradiol = 100
Text: as §1

T2 sequence (Q92731 whole entry): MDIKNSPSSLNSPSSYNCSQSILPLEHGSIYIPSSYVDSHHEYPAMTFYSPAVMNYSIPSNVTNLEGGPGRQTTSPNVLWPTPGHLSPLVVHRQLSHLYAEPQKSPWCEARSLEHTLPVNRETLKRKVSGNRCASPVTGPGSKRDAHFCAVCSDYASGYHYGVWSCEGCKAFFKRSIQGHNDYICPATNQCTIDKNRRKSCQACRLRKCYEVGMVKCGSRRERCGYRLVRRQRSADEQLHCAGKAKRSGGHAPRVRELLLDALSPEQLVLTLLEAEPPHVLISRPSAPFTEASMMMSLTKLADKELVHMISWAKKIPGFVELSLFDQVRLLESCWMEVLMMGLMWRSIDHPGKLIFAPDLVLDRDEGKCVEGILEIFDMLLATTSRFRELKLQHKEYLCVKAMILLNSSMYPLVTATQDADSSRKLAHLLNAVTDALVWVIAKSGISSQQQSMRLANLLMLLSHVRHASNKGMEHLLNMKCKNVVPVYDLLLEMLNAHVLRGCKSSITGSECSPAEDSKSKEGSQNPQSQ

Structure (SMILES) | ERβ RBA (relative binding affinity)
Cc1cc([C@H]2CC[C@@]3(C)[C@H](CC[C@@H]3O)C2)cc(C)c1O [Compound 43, (1S,3aR,5S,7aS)-5-(4-hydroxy-3,5-dimethylphenyl)-7a-methyloctahydro-1H-inden-1-ol] | 0.001
Cc1cc(-c2ccc(O)cc2)cc(C)c1O [Compound 35] | 0.755 ± 0.20
Cc1cc(-c2cccc(CCO)c2)cc(C)c1O [Compound 44, 3′-(2-hydroxyethyl)-3,5-dimethyl-[1,1′-biphenyl]-4-ol] | 0.001
Cc1cc(-c2ccc(CCO)cc2)cc(C)c1O [Compound 45, 4′-(2-hydroxyethyl)-3,5-dimethyl-[1,1′-biphenyl]-4-ol] | 0.002
Cc1cc(-c2ccc(CO)cc2C(F)(F)F)cc(C)c1O [Compound 28] | 0.013 ± 0.002
Cc1cc(-c2ccc(CO)c(F)c2)cc(C)c1O [Compound 25, 3′-fluoro-4′-(hydroxvmethyl)-3,5-dimethyl-[1,1′-biphenyl]-4-ol] | 0.009 ± 0
Cc1cc(-c2ccc(CO)cc2)cc(C)c1O [Compound 23] | 0.002 ± 0.001
C#CC1(O)CCc2cc(-c3cc(C)c(O)c(C)c3)ccc21 (stereo not shown) [Compound 19, 1-ethynyl-5-(4-hydroxy-3,5-dimethylphenyl)-2,3-dihydro-1H-inden-1-ol] | <0.001
